According to patent US20230278972A1, “SUBSTITUTED HALOALKYL SULFONANILIDE HERBICIDES” (FMC Corporation, priority 2020, published 2023):

Tests used:
Format in all cases: in vivo
[1] = system: ragweed (common ragweed, Ambrosia artemisiifolia); experiment: Test A postemergence, ragweed; details: Postemergence, 0 to 100 scale (0 no effect, 100 complete control)
Outline: (§1)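 Postemergence ratings come from foliar sprays onto one- to two-leaf plants of 2 to 10 cm grown in loam/sand; preemergence ratings come from a directed spray onto the soil of newly seeded pots. Formulation was a surfactant-containing non-phytotoxic solvent blend.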

[2] = system: Foxtail, Giant (giant foxtail, Setaria faberi); experiment: Test A preemergence, Foxtail, Giant; details: Preemergence; for Plant response rating, Foxtail, Giant: 0 to 100 scale (0 no effect, 100 complete control); for Foxtail, Giant plant response rating: 125 g ai/ha, visual injury on 0 to 100 scale (0 no effect, 100 complete control), approximately 10 days
Outline: as §1

[3] = system: Ryegrass, Italian (Italian ryegrass, Lolium multiflorum); experiment: Test A postemergence, Ryegrass, Italian; details: Postemergence, 0 to 100 scale (0 no effect, 100 complete control)
Outline: as §1

[4] = system: barnyardgrass (Echinochloa crus-galli); experiment: Test A preemergence, barnyardgrass; details: Preemergence; for Plant response rating, Barnyardgrass: 0 to 100 scale (0 no effect, 100 complete control); for Barnyardgrass plant response rating: 125 g ai/ha, visual injury on 0 to 100 scale (0 no effect, 100 complete control), approximately 10 days
Outline: as §1

[5] = system: pigweed (Amaranthus retroflexus); experiment: Test A postemergence, pigweed; details: Postemergence, 0 to 100 scale (0 no effect, 100 complete control)
Outline: as §1

[6] = system: pigweed (Amaranthus retroflexus); experiment: Test A preemergence, pigweed; details: for Plant response rating, Pigweed: 0 to 100 scale (0 no effect, 100 complete control); for Pigweed plant response rating: 125 g ai/ha, visual injury on 0 to 100 scale (0 no effect, 100 complete control), approximately 10 days
Outline: (§2)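 Seeds are sown in loam mixed with sand and sprayed on the soil surface right after planting for the preemergence test. Postemergence pots are sprayed once seedlings reach 2 to 10 cm at the one- to two-leaf stage. The same surfactant-containing, non-phytotoxic solvent formulation serves both.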

kochia (Bassia scoparia) [7] = experiment: Test A postemergence, kochia; details: Postemergence, 0 to 100 scale (0 no effect, 100 complete control)
Outline: as §1

[8] = system: blackgrass (Alopecurus myosuroides); experiment: Test A postemergence, blackgrass; details: Postemergence, 0 to 100 scale (0 no effect, 100 complete control)
Outline: as §1

[9] = system: wheat (Triticum aestivum); experiment: Test A postemergence, wheat; details: Postemergence, 0 to 100 scale (0 no effect, 100 complete control)
Outline: as §2

[10] = system: barnyardgrass (Echinochloa crus-galli); experiment: Test A postemergence, barnyardgrass; details: Postemergence, 0 to 100 scale (0 no effect, 100 complete control)
Outline: as §2

[11] = system: Foxtail, Giant (giant foxtail, Setaria faberi); experiment: Test A postemergence, Foxtail, Giant; details: Postemergence, 0 to 100 scale (0 no effect, 100 complete control)
Outline: as §1

[12] = system: ragweed (common ragweed, Ambrosia artemisiifolia); experiment: Test A preemergence, ragweed; details: Preemergence; for Plant response rating, Ragweed: 0 to 100 scale (0 no effect, 100 complete control); for Ragweed plant response rating: 125 g ai/ha, visual injury on 0 to 100 scale (0 no effect, 100 complete control), approximately 10 days
Outline: as §1

[13] = system: Ryegrass, Italian (Italian ryegrass, Lolium multiflorum); experiment: Test A preemergence, Ryegrass, Italian; details: Preemergence; for Plant response rating, Ryegrass, Italian: 0 to 100 scale (0 no effect, 100 complete control); for Ryegrass, Italian plant response rating: 125 g ai/ha, visual injury on 0 to 100 scale (0 no effect, 100 complete control), approximately 10 days
Outline: as §1

corn (Zea mays) = experiment: Test A postemergence, corn; details: Postemergence, 0 to 100 scale (0 no effect, 100 complete control)
Outline: as §1

[14] = system: galium (catchweed bedstraw, Galium aparine); experiment: Test A postemergence, galium; details: Postemergence, 0 to 100 scale (0 no effect, 100 complete control)
Outline: as §2

kochia (Bassia scoparia) [15] = experiment: Test A preemergence, kochia; details: Preemergence; for Plant response rating, Kochia: 0 to 100 scale (0 no effect, 100 complete control); for Kochia plant response rating: 125 g ai/ha, visual injury on 0 to 100 scale (0 no effect, 100 complete control), approximately 10 days
Outline: as §1

[16] = 125 g ai/ha, visual injury approx. 10 days
[17] = 31 g ai/ha, visual injury, approx. 10 days
[18] = 1000 g ai/ha, visual injury, approx. 10 days
[19] = 500 g ai/ha, visual injury, approx. 10 days

## CSC1CCCN(C(=O)c2cc(NS(=O)(=O)C(F)(F)F)c(C)cc2C)C1 (centres unmarked) [Compound 3]
[1]; 31 g ai/ha
  Plant response rating, Ragweed: 40
[1]; [16]
  Plant response rating, Ragweed: 80
[2]; [17]
  Plant response rating, Foxtail, Giant: 20
[2]
  Foxtail, Giant plant response rating: 50
[3]; 31 g ai/ha
  Plant response rating, Ryegrass, Italian: 0
[3]; [16]
  Plant response rating, Ryegrass, Italian: 0
[4]; [17]
  Plant response rating, Barnyardgrass: 0
[4]
  Barnyardgrass plant response rating: 50
[5]; 31 g ai/ha
  Plant response rating, Pigweed: 70
[5]; [16]
  Plant response rating, Pigweed: 90
[6]; [17]
  Plant response rating, Pigweed: 90
[6]
  Pigweed plant response rating: 100
Kochia (Bassia scoparia) [7]; 31 g ai/ha
  Plant response rating, Kochia: 10
Kochia (Bassia scoparia) [7]; [16]
  Plant response rating, Kochia: 40
[8]; 31 g ai/ha
  Plant response rating, Blackgrass: 0
[8]; [16]
  Plant response rating, Blackgrass: 0
[9]; 31 g ai/ha
  Plant response rating, Wheat: 30
[9]; [16]
  Plant response rating, Wheat: 50
[10]; 31 g ai/ha
  Plant response rating, Barnyardgrass: 0
[10]; [16]
  Plant response rating, Barnyardgrass: 30
[11]; 31 g ai/ha
  Plant response rating, Foxtail, Giant: 0
[11]; [16]
  Plant response rating, Foxtail, Giant: 0
[12]; [17]
  Plant response rating, Ragweed: 0
[12]
  Ragweed plant response rating: 70
[13]; [17]
  Plant response rating, Ryegrass, Italian: 20
[13]
  Ryegrass, Italian plant response rating: 70
Corn (Zea mays); 31 g ai/ha
  Plant response rating, Corn: 20
Corn (Zea mays); [16]
  Plant response rating, Corn: 30
[14]; 31 g ai/ha
  Plant response rating, Galium: 90
[14]; [16]
  Plant response rating, Galium: 90
Kochia (Bassia scoparia) [15]; [17]
  Plant response rating, Kochia: 30
Kochia (Bassia scoparia) [15]
  Kochia plant response rating: 80

## Cc1ccc(C(=O)N2CCC(C)CC2)cc1NS(=O)(=O)C(F)(F)F [Compound 7]
[1]; [18]
  Plant response rating, Ragweed: 20
[2]; 1000 g ai/ha
  Plant response rating, Foxtail, Giant: 90
[3]; [18]
  Plant response rating, Ryegrass, Italian: 90
[4]; 1000 g ai/ha
  Plant response rating, Barnyardgrass: 80
[5]; [18]
  Plant response rating, Pigweed: 20
[6]; 1000 g ai/ha
  Plant response rating, Pigweed: 80
Kochia (Bassia scoparia) [7]; [18]
  Plant response rating, Kochia: 40
[8]; [18]
  Plant response rating, Blackgrass: 20
[9]; [18]
  Plant response rating, Wheat: 0
[10]; [18]
  Plant response rating, Barnyardgrass: 20
[11]; [18]
  Plant response rating, Foxtail, Giant: 0
[12]; 1000 g ai/ha
  Plant response rating, Ragweed: 80
[13]; 1000 g ai/ha
  Plant response rating, Ryegrass, Italian: 60
Corn (Zea mays); [18]
  Plant response rating, Corn: 0
[14]; [18]
  Plant response rating, Galium: 40
Kochia (Bassia scoparia) [15]; 1000 g ai/ha
  Plant response rating, Kochia: 30

## Cc1cc(C)c(C(=O)N2CCC(F)CC2)cc1NS(=O)(=O)C(F)(F)F [Compound 8]
[1]; [18]
  Plant response rating, Ragweed: 90
[2]; 1000 g ai/ha
  Plant response rating, Foxtail, Giant: 100
[3]; [18]
  Plant response rating, Ryegrass, Italian: 80
[4]; 1000 g ai/ha
  Plant response rating, Barnyardgrass: 100
[5]; [18]
  Plant response rating, Pigweed: 80
[6]; 1000 g ai/ha
  Plant response rating, Pigweed: 100
Kochia (Bassia scoparia) [7]; [18]
  Plant response rating, Kochia: 80
[8]; [18]
  Plant response rating, Blackgrass: 70
[9]; [18]
  Plant response rating, Wheat: 40
[10]; [18]
  Plant response rating, Barnyardgrass: 80
[11]; [18]
  Plant response rating, Foxtail, Giant: 90
[12]; 1000 g ai/ha
  Plant response rating, Ragweed: 90
[13]; 1000 g ai/ha
  Plant response rating, Ryegrass, Italian: 100
Corn (Zea mays); [18]
  Plant response rating, Corn: 30
[14]; [18]
  Plant response rating, Galium: 20
Kochia (Bassia scoparia) [15]; 1000 g ai/ha
  Plant response rating, Kochia: 100

## Cc1cc(C)c(C(=O)N2CC(C)OC(C)C2)cc1NS(=O)(=O)C(F)(F)F (centres unmarked) [Compound 9]
[1]; [16]
  Plant response rating, Ragweed: 70
[1]; [19]
  Plant response rating, Ragweed: 80
[2]
  Foxtail, Giant plant response rating: 80
[2]; 500 g ai/ha
  Plant response rating, Foxtail, Giant: 100
[3]; [16]
  Plant response rating, Ryegrass, Italian: 70
[3]; [19]
  Plant response rating, Ryegrass, Italian: 80
[4]
  Barnyardgrass plant response rating: 100
[4]; 500 g ai/ha
  Plant response rating, Barnyardgrass: 100
[5]; [16]
  Plant response rating, Pigweed: 60
[5]; [19]
  Plant response rating, Pigweed: 80
[6]
  Pigweed plant response rating: 30
[6]; 500 g ai/ha
  Plant response rating, Pigweed: 80
Kochia (Bassia scoparia) [7]; [16]
  Plant response rating, Kochia: 10
Kochia (Bassia scoparia) [7]; [19]
  Plant response rating, Kochia: 30
[8]; [16]
  Plant response rating, Blackgrass: 30
[8]; [19]
  Plant response rating, Blackgrass: 30
[9]; [16]
  Plant response rating, Wheat: 60
[9]; [19]
  Plant response rating, Wheat: 70
[10]; [16]
  Plant response rating, Barnyardgrass: 80
[10]; [19]
  Plant response rating, Barnyardgrass: 90
[11]; [16]
  Plant response rating, Foxtail, Giant: 20
[11]; [19]
  Plant response rating, Foxtail, Giant: 90
[12]
  Ragweed plant response rating: 90
[12]; 500 g ai/ha
  Plant response rating, Ragweed: 90
[13]
  Ryegrass, Italian plant response rating: 90
[13]; 500 g ai/ha
  Plant response rating, Ryegrass, Italian: 100
Corn (Zea mays); [16]
  Plant response rating, Corn: 0
Corn (Zea mays); [19]
  Plant response rating, Corn: 70
[14]; [16]
  Plant response rating, Galium: 80
[14]; [19]
  Plant response rating, Galium: 90
Kochia (Bassia scoparia) [15]
  Kochia plant response rating: 70
Kochia (Bassia scoparia) [15]; 500 g ai/ha
  Plant response rating, Kochia: 90

## Cc1cc(C)c(C(=O)N2CCN(C)CC2)cc1NS(=O)(=O)C(F)(F)F [Compound 10]
[1]; [18]
  Plant response rating, Ragweed: 80
[2]; 1000 g ai/ha
  Plant response rating, Foxtail, Giant: 80
[3]; [18]
  Plant response rating, Ryegrass, Italian: 60
[4]; 1000 g ai/ha
  Plant response rating, Barnyardgrass: 40
[5]; [18]
  Plant response rating, Pigweed: 80
[6]; 1000 g ai/ha
  Plant response rating, Pigweed: 100
Kochia (Bassia scoparia) [7]; [18]
  Plant response rating, Kochia: 40
[8]; [18]
  Plant response rating, Blackgrass: 0
[9]; [18]
  Plant response rating, Wheat: 0
[10]; [18]
  Plant response rating, Barnyardgrass: 10
[11]; [18]
  Plant response rating, Foxtail, Giant: 20
[12]; 1000 g ai/ha
  Plant response rating, Ragweed: 90
[13]; 1000 g ai/ha
  Plant response rating, Ryegrass, Italian: 90
Corn (Zea mays); [18]
  Plant response rating, Corn: 10
[14]; [18]
  Plant response rating, Galium: 80
Kochia (Bassia scoparia) [15]; 1000 g ai/ha
  Plant response rating, Kochia: 60

## Cc1cc(C)c(C(=O)N2CCC(C#N)CC2)cc1NS(=O)(=O)C(F)(F)F [Compound 11]
[1]; [18]
  Plant response rating, Ragweed: 80
[2]; 1000 g ai/ha
  Plant response rating, Foxtail, Giant: 100
[3]; [18]
  Plant response rating, Ryegrass, Italian: 70
[4]; 1000 g ai/ha
  Plant response rating, Barnyardgrass: 100
[5]; [18]
  Plant response rating, Pigweed: 100
[6]; 1000 g ai/ha
  Plant response rating, Pigweed: 100
Kochia (Bassia scoparia) [7]; [18]
  Plant response rating, Kochia: 60
[8]; [18]
  Plant response rating, Blackgrass: 50
[9]; [18]
  Plant response rating, Wheat: 80
[10]; [18]
  Plant response rating, Barnyardgrass: 90
[11]; [18]
  Plant response rating, Foxtail, Giant: 90
[12]; 1000 g ai/ha
  Plant response rating, Ragweed: 80
[13]; 1000 g ai/ha
  Plant response rating, Ryegrass, Italian: 0
Corn (Zea mays); [18]
  Plant response rating, Corn: 60
[14]; [18]
  Plant response rating, Galium: 90
Kochia (Bassia scoparia) [15]; 1000 g ai/ha
  Plant response rating, Kochia: 90
